MFC data for 15 compounds are collected here from ChEMBL document CHEMBL4257506, “Design, synthesis and antimicrobial activity of usnic acid derivatives” (2018).

SMILES strings stand for the structures.

Holding throughout (type): functional
One test concerns Talaromyces funiculosus. Nature of the test: Fungicidal activity against Penicillium funiculosum ATCC 36839 by microdilution method. (In broth dilution the organism is exposed to a series of concentrations in liquid medium.)
Another test concerns Trichoderma viride. Nature of the test: Fungicidal activity against Trichoderma viride IAM 5061 by microdilution method.
The next test deals with Aspergillus niger. Put plainly: Fungicidal activity against Aspergillus niger by microdilution method.
For another test, the system named is Aspergillus ochraceus. Nature of the test: Fungicidal activity against Aspergillus ochraceus by microdilution method.
The test system of another test is Aspergillus versicolor. Nature of the test: Fungicidal activity against Aspergillus versicolor ATCC 11730 by microdilution method.
A further test relates to Aspergillus fumigatus. Nature of the test: Fungicidal activity against Aspergillus fumigatus ATCC 1022 by microdilution method.
The next test relates to Penicillium ochrochloron. Nature of the test: Fungicidal activity against Penicillium ochrochloron ATCC 9112 by microdilution method.
Another test has as its system Penicillium cyclopium. Put plainly: Fungicidal activity against Penicillium verrucosum var. cyclopium food isolate by microdilution method.

With `CC(=O)C1=C(O)C=C2Oc3c(C(C)=O)c(O)c(C)c(O)c3C2(C)C1=O` (stereo not given), the MFC in the test on Talaromyces funiculosus worked out at 8.8 ×10⁻² mmol/ml; in the test with Trichoderma viride, 4.4 ×10⁻² mmol/ml; in the test with Aspergillus niger, 8.8 ×10⁻² mmol/ml; with Aspergillus ochraceus it was 4.4 ×10⁻² mmol/ml; against Aspergillus versicolor, 8.8 ×10⁻² mmol/ml; in the test with Aspergillus fumigatus it was 69.8 ×10⁻² mmol/ml. Moreover, the MFC against Penicillium ochrochloron and in the test with Penicillium cyclopium was 8.8 ×10⁻² mmol/ml in each case.
Regarding `CC(=O)NCCN/C(C)=C1\C(=O)C=C2Oc3c(C(C)=O)c(O)c(C)c(O)c3[C@@]2(C)C1=O`, the MFC came out at 7.53 ×10⁻² mmol/ml in the test on Talaromyces funiculosus; 15.05 ×10⁻² mmol/ml in the test with Trichoderma viride; 15.05 ×10⁻² mmol/ml in the test with Aspergillus niger; 15.05 ×10⁻² mmol/ml in the test on Aspergillus ochraceus; 7.53 ×10⁻² mmol/ml in the test with Aspergillus versicolor; 7.53 ×10⁻² mmol/ml against Aspergillus fumigatus. The MFC was 7.53 ×10⁻² mmol/ml with Penicillium ochrochloron and 15.05 ×10⁻² mmol/ml with Penicillium cyclopium.
Take `CC(=O)c1c(O)c(C)c(O)c2c1OC1=CC(=O)/C(=C(/C)NCCc3ccc(O)c(O)c3)C(=O)[C@@]12C`: the MFC came out at 4.17 ×10⁻² mmol/ml against Talaromyces funiculosus; 2.09 ×10⁻² mmol/ml in the test with Trichoderma viride; 8.34 ×10⁻² mmol/ml in the test on Aspergillus niger; 2.09 ×10⁻² mmol/ml in the test with Aspergillus ochraceus; 4.17 ×10⁻² mmol/ml against Aspergillus versicolor; 4.17 ×10⁻² mmol/ml in the test with Aspergillus fumigatus. The MFC in the test with Penicillium ochrochloron and with Penicillium cyclopium was 4.17 ×10⁻² mmol/ml in each case.
On to `CC(=O)c1c(O)c(C)c(O)c2c1OC1=CC(=O)/C(=C(/C)NCc3nc(N)n[nH]3)C(=O)[C@@]12C`, for which the MFC worked out at 4.41 ×10⁻² mmol/ml in the test on Talaromyces funiculosus; 8.82 ×10⁻² mmol/ml against Trichoderma viride; 4.41 ×10⁻² mmol/ml against Aspergillus niger; 8.82 ×10⁻² mmol/ml in the test with Aspergillus ochraceus; 4.41 ×10⁻² mmol/ml against Aspergillus versicolor; 4.41 ×10⁻² mmol/ml in the test with Aspergillus fumigatus. Besides, the MFC with Penicillium ochrochloron is 4.41 ×10⁻² mmol/ml; with Penicillium cyclopium it was 8.82 ×10⁻² mmol/ml.
Turning to `CC(=O)c1c(O)c(C)c(O)c2c1OC1=CC(=O)/C(=C(/C)NCc3noc(C4CCC(=O)N4)n3)C(=O)[C@@]12C` (stereo not given in full), the MFC turned out to be 1.77 ×10⁻² mmol/ml against Talaromyces funiculosus; 1.77 ×10⁻² mmol/ml against Trichoderma viride; 3.54 ×10⁻² mmol/ml in the test with Aspergillus niger; 3.54 ×10⁻² mmol/ml against Aspergillus ochraceus; 3.54 ×10⁻² mmol/ml against Aspergillus versicolor; 3.54 ×10⁻² mmol/ml against Aspergillus fumigatus. Further, the MFC with Penicillium ochrochloron was 1.77 ×10⁻² mmol/ml; in the test on Penicillium cyclopium, 3.54 ×10⁻² mmol/ml.
`CC(=O)c1c(O)c(C)c(O)c2c1OC1=CC(=O)/C(=C(/C)NCCc3nc(C)no3)C(=O)[C@@]12C`: the MFC with Talaromyces funiculosus is 3.73 ×10⁻² mmol/ml; with Trichoderma viride, 1.87 ×10⁻² mmol/ml; in the test on Aspergillus niger, 3.73 ×10⁻² mmol/ml; in the test with Aspergillus ochraceus, 1.87 ×10⁻² mmol/ml; in the test on Aspergillus versicolor, 3.73 ×10⁻² mmol/ml; against Aspergillus fumigatus, 3.73 ×10⁻² mmol/ml. Further, the MFC in the test on Penicillium ochrochloron and in the test with Penicillium cyclopium was 3.73 ×10⁻² mmol/ml in each case.
As for `COc1ccc2nc(NC(=O)CN/C(C)=C3\C(=O)C=C4Oc5c(C(C)=O)c(O)c(C)c(O)c5[C@@]4(C)C3=O)sc2c1`, the MFC in the test on Talaromyces funiculosus amounted to 14.95 ×10⁻² mmol/ml; in the test with Trichoderma viride, 1.77 ×10⁻² mmol/ml; with Aspergillus niger, 14.95 ×10⁻² mmol/ml; against Aspergillus ochraceus, 14.95 ×10⁻² mmol/ml; with Aspergillus versicolor, 7.1 ×10⁻² mmol/ml; in the test with Aspergillus fumigatus, 14.95 ×10⁻² mmol/ml. For the same compound, the MFC in the test with Penicillium ochrochloron and against Penicillium cyclopium was 14.95 ×10⁻² mmol/ml throughout.
`CC(=O)c1c(O)c(C)c(O)c2c1OC1=CC(=O)/C(=C(/C)NCC(=O)NC(CO)C(=O)O)C(=O)[C@@]12C` (stereo not given in full): the MFC is given as 3.69 ×10⁻² mmol/ml in the test with Talaromyces funiculosus; 1.84 ×10⁻² mmol/ml with Trichoderma viride; 3.69 ×10⁻² mmol/ml against Aspergillus niger; 3.69 ×10⁻² mmol/ml against Aspergillus ochraceus; 3.69 ×10⁻² mmol/ml in the test on Aspergillus versicolor; 3.69 ×10⁻² mmol/ml with Aspergillus fumigatus. The MFC in the test on Penicillium ochrochloron and against Penicillium cyclopium was 3.69 ×10⁻² mmol/ml throughout.
With `CC(=O)c1c(O)c(C)c(O)c2c1OC1=CC(=O)/C(=C(/C)NCCc3nnc(-c4ccccc4O)o3)C(=O)[C@@]12C`, the MFC was 3.01 ×10⁻² mmol/ml in the test on Talaromyces funiculosus; 1.51 ×10⁻² mmol/ml against Trichoderma viride; 6.02 ×10⁻² mmol/ml against Aspergillus niger; 1.51 ×10⁻² mmol/ml against Aspergillus ochraceus; 3.01 ×10⁻² mmol/ml against Aspergillus versicolor; 3.01 ×10⁻² mmol/ml against Aspergillus fumigatus. For the same compound, the MFC against Penicillium ochrochloron and against Penicillium cyclopium was 3.01 ×10⁻² mmol/ml throughout.
Regarding `CC(=O)c1c(O)c(C)c(O)c2c1OC1=CC(=O)/C(=C(/C)NCCn3c(=O)c(O)nc4ccccc43)C(=O)[C@@]12C`, the MFC against Talaromyces funiculosus came out at 3.64 ×10⁻² mmol/ml; against Trichoderma viride it was 1.82 ×10⁻² mmol/ml; with Aspergillus niger it was 3.64 ×10⁻² mmol/ml; with Aspergillus ochraceus it was 1.82 ×10⁻² mmol/ml; in the test with Aspergillus versicolor, 3.64 ×10⁻² mmol/ml; against Aspergillus fumigatus, 3.64 ×10⁻² mmol/ml. Also, the MFC against Penicillium ochrochloron was determined as 3.64 ×10⁻² mmol/ml; with Penicillium cyclopium it was 7.28 ×10⁻² mmol/ml.
`CC(=O)c1c(O)c(C)c(O)c2c1OC1=CC(=O)/C(=C(/C)NCCS(N)(=O)=O)C(=O)[C@@]12C`: the MFC came out at 7.1 ×10⁻² mmol/ml against Talaromyces funiculosus; 3.55 ×10⁻² mmol/ml against Trichoderma viride; 7.1 ×10⁻² mmol/ml in the test with Aspergillus niger; 3.55 ×10⁻² mmol/ml in the test on Aspergillus ochraceus; 7.1 ×10⁻² mmol/ml in the test on Aspergillus versicolor; 7.1 ×10⁻² mmol/ml against Aspergillus fumigatus. The MFC against Penicillium ochrochloron and against Penicillium cyclopium was 7.1 ×10⁻² mmol/ml in each case.
Turning to `CC(=O)c1c(O)c(C)c(O)c2c1OC1=CC(=O)/C(=C(/C)NCC(=O)Nc3nccs3)C(=O)[C@@]12C`, the MFC against Talaromyces funiculosus stood at 3.72 ×10⁻² mmol/ml; against Trichoderma viride, 3.72 ×10⁻² mmol/ml; in the test with Aspergillus niger it was 1.86 ×10⁻² mmol/ml; against Aspergillus ochraceus it was 1.86 ×10⁻² mmol/ml; against Aspergillus versicolor, 3.72 ×10⁻² mmol/ml; in the test on Aspergillus fumigatus, 3.72 ×10⁻² mmol/ml. The MFC in the test with Penicillium ochrochloron and in the test with Penicillium cyclopium was 3.72 ×10⁻² mmol/ml each time.
In the case of `COCCc1noc(CCN/C(C)=C2\C(=O)C=C3Oc4c(C(C)=O)c(O)c(C)c(O)c4[C@@]3(C)C2=O)n1`, the MFC was found to be 4.02 ×10⁻² mmol/ml in the test with Talaromyces funiculosus; 2.01 ×10⁻² mmol/ml in the test with Trichoderma viride; 4.02 ×10⁻² mmol/ml with Aspergillus niger; 2.01 ×10⁻² mmol/ml in the test on Aspergillus ochraceus; 4.02 ×10⁻² mmol/ml against Aspergillus versicolor; 4.02 ×10⁻² mmol/ml in the test with Aspergillus fumigatus. In addition, the MFC in the test with Penicillium ochrochloron and against Penicillium cyclopium was 4.02 ×10⁻² mmol/ml throughout.
As for `c1ccc(-c2ccc(C(c3ccccc3)n3ccnc3)cc2)cc1` (stereo not given) [BIFONAZOLE], the MFC with Talaromyces funiculosus amounted to 80 ×10⁻² mmol/ml; in the test with Trichoderma viride, 80 ×10⁻² mmol/ml; against Aspergillus niger, 64 ×10⁻² mmol/ml; with Aspergillus ochraceus, 80 ×10⁻² mmol/ml; in the test on Aspergillus versicolor, 64 ×10⁻² mmol/ml; in the test with Aspergillus fumigatus, 64 ×10⁻² mmol/ml. In addition, the MFC in the test on Penicillium ochrochloron is reported as 64 ×10⁻² mmol/ml; against Penicillium cyclopium it was 48 ×10⁻² mmol/ml.
With `CC(=O)N1CCN(c2ccc(OCC3COC(Cn4ccnc4)(c4ccc(Cl)cc4Cl)O3)cc2)CC1` (stereo not given) [KETOCONAZOLE], the MFC against Talaromyces funiculosus worked out at 95 ×10⁻² mmol/ml; against Trichoderma viride, 570 ×10⁻² mmol/ml; in the test on Aspergillus niger it was 95 ×10⁻² mmol/ml; in the test on Aspergillus ochraceus, 95 ×10⁻² mmol/ml; against Aspergillus versicolor it was 380 ×10⁻² mmol/ml; against Aspergillus fumigatus it was 95 ×10⁻² mmol/ml. In addition, the MFC is given as 380 ×10⁻² mmol/ml against Penicillium ochrochloron and 94 ×10⁻² mmol/ml against Penicillium cyclopium.
